Experimental data from US11059875B2, “Composition for preventing or treating cardiofaciocutaneous syndrome” (Korea Advanced Institute of Science and Technology, priority 2018, dated 2021).
Entries after “also recorded” stand apart in the source; their conditions may differ.

B1: BMP4: recombinant human bone morphogenic protein 4, BMP signaling pathway activator, SEQ. ID. NO: 13 (R&D systems) (protein, listed as Homo sapiens)
chain: MIPGNRMLMVVLLCQVLLGGASHASLIPETGKKKVAEIQGHAGGRRSGQSHELLRDFEATLLQMFGLRRRPQPSKSAVIPDYMRDLYRLQSGEEEEEQIHSTGLEYPERPASRANTVRSFHHEEHLENIPGTSENSAFRFLFNLSSIPENEVISSAELRLFREQVDQGPDWERGFHRINIYEVMKPPAEVVPGHLITRLLDTRLVHHNVTRWETFDVSPAVLRWTREKQPNYGLAIEVTHLHQTRTHQGQHVRISRSLPQGSGNWAQLRPLLVTFGHDGRGHALTRRRRAKRSPKHHSQRARKKNKNCRRHSLYVDFSDVGWNDWIVAPPGYQAFYCHGDCPFPLADHLNSTNHAIVQTLVNSVNSSIPKACCVPTELSAISMLYLDEYDKVVLKNYQEMVVEGCGCR

Tests used:
Format in all cases: cell-based, human
[1] = tested on: osteoblasts differentiated from CFC-MSCs; assay: ALP enzyme activity (ALP kit staining) in osteoblasts differentiated from CFC-MSCs; details: treated on day 1 for 24 hours (U0126 5 μM, SB-431542 5 μM, BMP4 50 ng/ml), measured on 7th day of differentiation, FIG. 13
Experimental: (§1) To differentiate into osteoblasts, the MSCs were treated with 0.25% trypsin-EDTA at 37° C. for 2 minutes and separated from the culture dish. The cells were spread on a 4-well culture dish at the density of 2.5×10^4 cells/cm^2, which were cultured in MSC culture medium at 37° C. for 3 days until the cells were full. 3 days later, the medium was replaced with STEMPRO osteogenesis differentiation Medium (Invitrogen), and the medium was replaced every three days. The activity of ALP, which is an enzyme essential for the formation of hydroxyapatite, a major component of bone mineral, and an indicator of osteoblast differentiation, was investigated at 7 day intervals by using an ALP kit (Leucocyte Alkaline Phosphatase Kit, Sigma-Aldrich). […] The cells were washed with distilled water twice and the degree of color change into red was measured to investigate the calcium ion deposition.
(§2) Particularly, the differentiation of CFC-MSCs into osteoblasts was induced by the same manner as described in Experimental Example <2-2>. […] ALP enzyme activity was measured on the 7th day of the differentiation, and alizarin red S staining was performed on the 14th day of the differentiation by the same manner as described in Experimental Example <2-2>. […] After washing the cells with distilled water twice, the amount of calcium deposition was evaluated by the degree of darkening.

[2] = tested on: osteoblasts differentiated from CFC-MSCs; assay: Bone mineral deposition (alizarin red S and von Kossa staining) in osteoblasts differentiated from CFC-MSCs; details: treated on day 1 for 24 hours (U0126 5 μM, SB-431542 5 μM, BMP4 50 ng/ml), alizarin red S day 14, von Kossa day 21, FIG. 14
Experimental: as §1, §2

[3] = tested on: osteoblasts differentiated from CFC-iPSCs; assay: Differentiation of CFC syndrome patient derived iPSCs into osteoblasts through mesenchymal stem cells; details: CFC patient iPSC-derived cells; FIG. 13 to FIG. 15
Excerpt: […] The iPSCs derived from wild type (WT) individuals and the iPSCs derived from CFC syndrome patients were induced to be differentiated in vitro for about 30 days by referring to the protocol proposed in a previous paper (Mahmood, Harkness et al. 2010). Particularly, CFC-iPSC colony was divided into 4 to 9 sections (0.5 mm×0.5 mm/each section) by using a tissue chopper provided from Mickle Laboratory Engineering Co. The sections were treated with 10 mg/ml of dispase at 37° C. for 4 minutes and then the sections were detached from the cell culture dish. The separated cell sections were transferred in a Petri dish, followed by culture in EB medium (embryoid body differentiation medium), the Dulbecco's modified Eagle's medium (DMEM/F12) supplemented with 10% serum replacement (SR), 1% penicillin-streptomycin and 1% non-essential amino acids, for a day. […]
To differentiate into osteoblasts, the MSCs were treated with 0.25% trypsin-EDTA at 37° C. for 2 minutes and separated from the culture dish. […] The cells were washed with distilled water twice and the degree of color change into red was measured to investigate the calcium ion deposition. […]

Molecule | ALP enzyme activity [1] | bone mineral deposition [2] | differentiation ability into osteoblasts [3]
NC(=O)c1ccc(-c2nc(-c3ccc4c(c3)OCO4)c(-c3ccccn3)[nH]2)cc1 [SB-431542] | increase | increase | improved; also recorded: efficient in improving the differentiation ability
B1 | increase | increase | efficient in improving the differentiation ability
